Measured values from PubChem BioAssay (NCI).
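Cells were grown in 96-well plates and exposed to each compound for 48 hours at five concentrations; endpoints were interpolated linearly between bracketing concentrations, or set to the highest concentration if not reached. The concentration for 50% growth inhibition is given as GI50. TGI: total growth inhibition.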

Experiments:
Test in all cases: NCI tumour cell line growth inhibition, 48 h
HT29 colon = system: HT29 colon
HOP-92 NSCLC = system: HOP-92 NSCLC
HS 578T breast = system: HS 578T breast
MOLT-4 leukemia = system: MOLT-4 leukemia
786-0 renal = system: 786-0 renal
UACC-257 melanoma = system: UACC-257 melanoma
SK-OV-3 ovarian = system: SK-OV-3 ovarian
SN12C renal = system: SN12C renal
OVCAR-4 ovarian = system: OVCAR-4 ovarian
A498 renal = system: A498 renal

| Compound | TGI (HT29 colon) | TGI (HOP-92 NSCLC) | TGI (HS 578T breast) | TGI (MOLT-4 leukemia) | TGI (786-0 renal) | TGI (UACC-257 melanoma) | TGI (SK-OV-3 ovarian) | TGI (SN12C renal) | TGI (OVCAR-4 ovarian) | TGI (A498 renal) | GI50 (HT29 colon) | GI50 (HOP-92 NSCLC) | GI50 (HS 578T breast) | GI50 (MOLT-4 leukemia) | GI50 (A498 renal) | GI50 (SN12C renal) |
| --- | --- | --- | --- | --- | --- | --- | --- | --- | --- | --- | --- | --- | --- | --- | --- | --- |
| Cc1c(OCc2ccccc2)c(=O)ccn1CCc1c[nH]c2ccccc12 | 71.9 µM | 51.3 µM | > 100 µM | 31.9 µM | 87 µM | > 100 µM | > 100 µM | > 100 µM |  |  |  |  |  |  |  |  |
| CC(C)(C)C(=O)OCC1OC(N=[N+]=[N-])C(OC(=O)C(C)(C)C)C(OC(=O)C(C)(C)C)C1OC(=O)C(C)(C)C (centres undefined) | > 100 µM | > 100 µM |  | > 100 µM |  | > 100 µM | > 100 µM | > 100 µM | > 100 µM | > 100 µM |  |  |  |  |  |  |
| O=c1[nH]c(=O)n(COCCO)c2ccsc12 | > 100 µM | > 100 µM | > 100 µM | > 100 µM | > 100 µM | > 100 µM |  | > 100 µM | > 100 µM | > 100 µM |  |  |  |  |  |  |
| CN1CN(c2ccccc2)C2(CCN(CCCCCCF)CC2)C1=O | > 100 µM |  |  | > 100 µM | > 100 µM | > 100 µM | > 100 µM | > 100 µM |  |  |  |  |  |  |  |  |
| CCOC(=O)C(NC(=O)CC)(Nc1ccc(S(=O)(=O)Nc2onc(C)c2C)cc1)C(F)(F)F (centres undefined) | > 100 µM | > 100 µM | > 100 µM | > 100 µM | > 100 µM | > 100 µM | > 100 µM | > 100 µM | > 100 µM |  |  |  |  |  |  |  |
| Cc1ccc(S(=O)(=O)[C@@H](Cl)[C@H]2N=C(Cl)NN=C2c2ccccc2)cc1 | > 100 µM | 54.3 µM |  | 83.1 µM | 85 µM | 48.1 µM | > 100 µM | 54 µM | 36.6 µM | 35.7 µM |  |  |  |  |  |  |
| Cc1ccc(N(O)C(C)(C)C)cc1 | > 100 µM | > 100 µM |  | > 100 µM |  | > 100 µM | > 100 µM | > 100 µM | > 100 µM | > 100 µM |  |  |  |  |  |  |
| CN1N=C(c2ccncc2)OC1c1cccc(C(F)(F)F)c1 (centres undefined) | > 100 µM |  | > 100 µM | > 100 µM | > 100 µM | > 100 µM | > 100 µM | > 100 µM | > 100 µM | > 100 µM |  |  |  |  |  |  |
| O=C(O)CC[P+](c1ccccc1)(c1ccccc1)c1ccccc1 | > 100 µM |  | > 100 µM | > 100 µM | > 100 µM | > 100 µM | > 100 µM | 54.7 µM | > 100 µM | > 100 µM |  |  |  |  |  |  |
| O=C(Sc1c(-c2ccccc2)c(=O)n(-c2ccccc2)c(=S)n1-c1ccccc1)c1cccs1 | > 100 µM | > 100 µM | > 100 µM | 86 µM | > 100 µM | > 100 µM | > 100 µM | > 100 µM | > 100 µM |  |  |  |  |  |  |  |
| Cc1cccc2nc3c(=O)[nH]c(=O)nc-3n(C)c12 | > 100 µM |  | > 100 µM | > 100 µM | > 100 µM | > 100 µM | > 100 µM | > 100 µM | > 100 µM |  |  |  |  |  |  |  |
| CCOC(=O)NNC(=O)NCc1ccccc1CNC(=O)NNC(=O)OCC | > 100 µM |  | > 100 µM | > 100 µM | > 100 µM | > 100 µM | > 100 µM | > 100 µM | > 100 µM | > 100 µM |  |  |  |  |  |  |
| COC(=O)C1=C(O)C(C(=O)OC)[C@]2(O)[C@@H](C(=O)OC)[C@H]1C[C@@H](c1ccccc1)[C@@H]2C(=O)OC (some centres undefined) | 36.7 µM |  | 76.8 µM | 55.6 µM |  | 25.8 µM | 47.3 µM | 32.1 µM |  | 35.2 µM |  |  |  |  |  |  |
| CC(=O)NNc1nc(C)c(C(=O)NNC(=O)C(=O)Nc2cccc(C(C)=O)c2)s1 | > 100 µM | 90 µM |  | > 100 µM |  | 49.9 µM | 32.5 µM | 35.1 µM | 64.3 µM | 47.8 µM |  |  |  |  |  |  |
| CS(=O)(=O)c1nc(-c2cc3c(c(S(C)(=O)=O)n2)CCC3)cc2c1CCCC2 | > 100 µM |  | 14.1 µM | > 100 µM | > 100 µM | > 100 µM | 77.7 µM | > 100 µM | > 100 µM |  |  |  |  |  |  |  |
| C=C[C@@]1(O)CCCC[C@@H]1CC(Sc1ccccc1)Sc1ccccc1 | 36.9 µM |  | 33.6 µM | > 100 µM | 59.5 µM | 39.6 µM | 31.6 µM | 34.3 µM | 32.9 µM | 85 µM |  |  |  |  |  |  |
| Cc1ccc(S(=O)(=O)NC(=O)NC(CCCCN=C(N)N)C(=O)O)cc1 (centres undefined) |  | > 100 µM | > 100 µM | > 100 µM | > 100 µM | > 100 µM | > 100 µM | > 100 µM | > 100 µM |  |  |  |  |  |  |  |
| COC(=O)NNC(c1ccc(Cl)cc1)c1ccc(Cl)cc1 | 34.2 µM |  | 48.1 µM | 55.9 µM | 35 µM | 39 µM | 58.6 µM | 35.2 µM | 55.3 µM | 34.9 µM |  |  |  |  |  |  |
| N#C/C(=C\c1ccc([N+](=O)[O-])s1)c1nc2cc(Cl)ccc2s1 | > 100 µM | 1.6 µM | 8.45 µM | > 100 µM |  |  |  | 1.43 µM |  | > 100 µM | 3.29 µM | 0.287 µM | 2.45 µM | 2.11 µM | 3.56 µM | 0.296 µM |
| O=S(=O)(c1ccc(-c2nnc(-c3ccc(F)cc3)o2)cc1)c1ccc(-c2nnc(-c3ccc(F)cc3)o2)cc1 | > 100 µM | > 100 µM |  | > 100 µM | > 100 µM | > 100 µM | 90.3 µM | > 100 µM | > 100 µM | 58.6 µM |  |  |  |  |  |  |
| CC(C)OP(=O)(OC(C)C)C1=NN(c2ccc([N+](=O)[O-])cc2)C(P(=O)(OC(C)C)OC(C)C)=NN1c1ccc([N+](=O)[O-])cc1 | > 100 µM | > 100 µM |  | > 100 µM |  |  | > 100 µM | > 100 µM | > 100 µM |  |  |  |  |  |  |  |
| C=C1[C@@](C)([C@@H]2CCCS2)[C@H]2C(C)=C[C@]1(C)n1c(=O)n(-c3ccccc3)c(=O)n12 | > 100 µM |  | > 100 µM | > 100 µM | > 100 µM | > 100 µM | > 100 µM | > 100 µM | > 100 µM | > 100 µM |  |  |  |  |  |  |
| C[S+](C)CC1OC(n2cnc3c(N)ncnc32)C(O)C1O (centres undefined) | > 225 µM | > 225 µM |  | > 225 µM |  | > 225 µM | > 225 µM | > 225 µM | > 225 µM | > 225 µM |  |  |  |  |  |  |
